Test results from patent EP4578857A1, “CRYPTOLEPINE SALT DERIVATIVE, AND PREPARATION METHOD THEREFOR AND USE THEREOF” (Nankai University, priority 2023, dated 2025).
Where two headings read alike, the source gives them in different places.

Tests used:
Type in all cases: in vivo
[1] = test system: tobacco Mosaic virus (TMV); test: Anti-TMV activity: live treatment effect; details: for inhibition at 500 µg/mL: Tobacco mosaic virus, 72 h, read-out: Relative inhibition rate (%) Live treatment effect
Method: (§1) Determination of anti-tobacco Mosaic virus (TMV) activity by the following procedure:
(§2) The virus crude extract was centrifuged with polyethylene glycol at twice and refrigerated at 4°C for use. The absorbance of 260nm wavelength was determined by ultraviolet spectrophotometer, and the virus concentration was calculated according to the formula. Virus concentration(mg/ml) = (A260 × dilution ratio)(/E)^0.10 1cm^260nm . [formula]
(§3) After weighing, cryptolepine salt derivative, ningnanmycin and the original drug of ribavirin were dissolved in DMF to obtain 1×10^5µg/mL mother solution, and then diluted to the required concentration with 1‰ Tween 80 aqueous solution.
Select the 3-5 leaf stage of tobacco Xanthi nc with uniform growth, use a brush to vaccinate the virus in the whole leaf, the virus concentration is 10µg/mL, and the leaf was washed with running water after inoculation. After the leaves were dried, the whole plant was sprayed with test sample, repeated 3 times every treatment, and 1‰ Tween 80 aqueous solution was set as control. After 3 days, the number of disease spots was recorded and the prevnetion and control effect was calculated.

[2] = test system: rice sheath blight strains; test: Bactericidal activity test: resistance to rice sheath blight (live pot test); details: for pest or weed control at 400 µg/mL: Oryza sativa, 144 h
Method: Bactericidal activity test, the determination procedure is as follows: Test of resistance to rice sheath blight: Select uniformly growing rice seedlings and spray them on the leaves at the set concentration, set a water sprayring group as blank control, every treatment was repeated twice. After 24h, the rice seedlings were inoculated with rice sheath blight strains and placed at room temperature (25±4°C) for normal management after inoculation. The prevention and control effect was investigated by visual inspection 6 days after inoculation.

[3] = test system: tobacco Mosaic virus (TMV); test: Anti-TMV activity: live protection function; details: for inhibition at 500 µg/mL: Tobacco mosaic virus, read-out: Relative inhibition rate (%) Live protection function; for antiTMV activity / TMV activity: 500µg/mL, Table 4 (all three modes); for antiTMV activity: compared with commercial Ningnanmycin; for TMV activity: compared with ribavirin
Method: as §1, §2, §3
Select the 3-5 leaf stage of tobacco Xanthi nc with uniform growth, spray the whole plant, repeat each treatment 3 times, and set 1‰ Tween80 aqueous solution as control. 24h later, the leaf surface was coated with emery (500 mesh), the disease venom was dipped with a brush, and the whole leaf surface was gently rubbed twice along the direction of the branch pulse by using the brush, the leaf was supported by palm of hand, the virus concentration was 10µg/mL, and the leaf was washed by water after inoculation. After 3 days, the number of disease spots was recorded and the prevnetion and control effect was calculated.

[4] = test system: tobacco Mosaic virus (TMV); test: Anti-TMV activity: living passivation activity test; details: for inhibition at 500 µg/mL: Tobacco mosaic virus, read-out: Relative inhibition rate (%) Living passivation activity test
Method: as §1, §2, §3
Select the 3-5 leaf stage of tobacco Xanthi nc with uniform growth, mix the test sample agent with the same volume of virus juice to passivate for 30min, friction inoculation, virus concentration 20µg/mL, the leaf was washed with running water after inoculation, repeat 3 times, set 1‰ Tween 80 aqueous solution as control. 3 days later, the number of disease spots was calculated. [formula]
Anti-tobacco Mosaic virus passivation activity test of all compounds was at a treatment dose of 500µg/mL. The positive control was the commercial anti-plant virus agent viriazole.

[5] = read-out: Resistance to rice sheath blight (%)/400mg/L
[6] = read-out: bactericidal activity against rice sheath blight
[7] = Treatment dose 500 mg/L, tobacco Xanthi nc inoculated (virus 10µg/mL), then sprayed, disease spots counted after 3 days
[8] = Treatment dose 500 mg/L, tobacco Xanthi nc sprayed 24h before inoculation, virus 10µg/mL, disease spots counted after 3 days
[9] = Treatment dose 500 mg/L, sample mixed with virus juice for 30min, then inoculated on tobacco Xanthi nc, virus 20µg/mL, 3 days
[10] = 400mg/L leaf spray on rice seedlings, inoculated after 24h, visual inspection 6 days after inoculation, read-out: Resistance to rice sheath blight (%)/400mg/L

Row | Compound | inhibition at 500 µg/mL [1] [%] | pest or weed control at 400 µg/mL [2, 5] [%] | pest or weed control at 400 µg/mL [2, 6] [%] | inhibition at 500 µg/mL [3] [%] | inhibition at 500 µg/mL [4] [%] | TMV activity [3] | other results
1 | Cc1ccc(S(=O)(=O)n2c3ccccc3c3c2cc2ccccc2[n+]3C)cc1 [Example 1] | 20.3 ± 1.1 | 95 ± 5 | > 95 | 18.9 ± 2.6 | 18.5 ± 0.6 | – | –
2 | Cc1ccc(S(=O)(=O)n2c3ccc(C)cc3c3c2cc2ccccc2[n+]3C)cc1 [Example 2] | 20.5 ± 0.9 | 40 | – | 26.5 ± 3 | 25.3 ± 2.3 | – | –
3 | COc1ccc2c(c1)c1c(cc3ccccc3[n+]1C)n2S(=O)(=O)c1ccc(C)cc1 [Example 3] | 19.1 ± 0.1 | 35 ± 5 | – | 18.1 ± 3.1 | 20.3 ± 0.2 | – | –
4 | Cc1ccc(S(=O)(=O)n2c3ccc(F)cc3c3c2cc2ccccc2[n+]3C)cc1 [Example 4] | 18.6 ± 1.2 | 60 | > 50 | 21.6 ± 3.4 | 14.1 ± 1.3 | – | –
5 | Cc1ccc(S(=O)(=O)n2c3ccc(Cl)cc3c3c2cc2ccccc2[n+]3C)cc1 [Example 5] | 35.8 ± 4.8 | 55 ± 5 | > 50 | 46.7 ± 4.1 | 39.3 ± 2.5 | better TMV activity than the ribavirin | antiTMV activity [3]: comparable to that of commercial Ningnanmycin
6 | Cc1ccc(S(=O)(=O)n2c3ccc(Br)cc3c3c2cc2ccccc2[n+]3C)cc1 [Example 6] | 45.2 ± 3.6 | 40 | – | 48.4 ± 4.7 | 41 ± 2.2 | better TMV activity than the ribavirin | antiTMV activity [3]: comparable to that of commercial Ningnanmycin
7 | Cc1ccc(S(=O)(=O)n2c3ccc(I)cc3c3c2cc2ccccc2[n+]3C)cc1.[Cl-] [Example 7] | – | – | – | – | – | better TMV activity than the ribavirin | Relative inhibition rate (%) Live treatment effect [1, 7]: 43.0±3.5%; Resistance to rice sheath blight (%)/400mg/L ([2]; 400mg/L leaf spray on rice seedlings, inoculated after 24h, visual inspection 6 days after inoculation): 40±0%; Relative inhibition rate (%) Live protection function [3, 8]: 44.5±0.4%; Relative inhibition rate (%) Living passivation activity test [4, 9]: 47.7±3.1%
8 | Cc1ccc(S(=O)(=O)n2c3ccc(C#N)cc3c3c2cc2ccccc2[n+]3C)cc1 [Example 8] | 23.1 ± 0.5 | 30 | – | 18.8 ± 4.2 | 18.6 ± 1.2 | – | –
9 | Cc1ccc(S(=O)(=O)n2c3ccccc3c3c2cc2cc(C)ccc2[n+]3C)cc1 [Example 9] | 19.1 ± 0.1 | 70 | > 50 | 23.8 ± 3.5 | 23.1 ± 0.9 | – | –
10 | COc1ccc2c(c1)cc1c(c3ccccc3n1S(=O)(=O)c1ccc(C)cc1)[n+]2C [Example 10] | 10.2 ± 0.7 | 30 | – | 17 ± 1 | 19.1 ± 0.2 | – | –
11 | Cc1ccc(S(=O)(=O)n2c3ccccc3c3c2cc2cc(F)ccc2[n+]3C)cc1 [Example 11] | 30.1 ± 1.1 | 40 | – | 27.6 ± 1.4 | 22.3 ± 1 | – | –
12 | Cc1ccc(S(=O)(=O)n2c3ccccc3c3c2cc2cc(Cl)ccc2[n+]3C)cc1 [Example 12] | 19.1 ± 1 | 40 | – | 23.4 ± 3.3 | 20.3 ± 2.1 | – | –
13 | Cc1ccc(S(=O)(=O)n2c3ccccc3c3c2cc2cc(Br)ccc2[n+]3C)cc1 [Example 13] | 52 ± 2.4 | 35 ± 5 | – | 50.8 ± 1 | 46.1 ± 3.9 | better TMV activity than the ribavirin | antiTMV activity [3]: comparable to that of commercial Ningnanmycin
14 | Cc1ccc(S(=O)(=O)n2c3ccccc3c3c2cc2cc(C(F)(F)F)ccc2[n+]3C)cc1 [Example 14] | 18.9 ± 1.2 | 60 | > 50 | 15.3 ± 1.2 | 20.1 ± 1.5 | – | –
15 | COC(=O)c1ccc2c(c1)cc1c(c3ccccc3n1S(=O)(=O)c1ccc(C)cc1)[n+]2C [Example 15] | 22.1 ± 0.2 | 40 | – | 15.6 ± 0.4 | 20 ± 1 | – | –
16 | Cc1ccc(S(=O)(=O)n2c3ccccc3c3c2cc2ccc(C)cc2[n+]3C)cc1 [Example 16] | 30.1 ± 1.1 | 95 ± 5 | > 95 | 28.1 ± 4.5 | 18.9 ± 0.8 | – | –
17 | Cc1ccc(S(=O)(=O)n2c3ccccc3c3c2cc2ccc(Cl)cc2[n+]3C)cc1 [Example 17] | 23.5 ± 2.1 | 40 | – | 30.2 ± 1.7 | 33.1 ± 1.1 | – | –
18 | Cc1ccc(S(=O)(=O)n2c3ccccc3c3c2cc2ccccc2[n+]3CC2CC2)cc1 [Example 18] | 38.7 ± 2.4 | 45 ± 5 | > 50 | 45.6 ± 0.9 | 40.8 ± 2.9 | better TMV activity than the ribavirin | –
19 | Cc1ccc(S(=O)(=O)n2c3ccccc3c3c2cc2ccccc2[n+]3CC2CCCCC2)cc1 [Example 19] | 42.4 ± 4.9 | 20 | – | 47 ± 2.8 | 44.2 ± 3.4 | better TMV activity than the ribavirin | –
20 | Cc1ccc(S(=O)(=O)n2c3ccccc3c3c2cc2ccccc2[n+]3CC(C)(C)C)cc1 [Example 20] | 48.5 ± 3 | 55 ± 5 | > 50 | 51.3 ± 3.5 | 53 ± 2.1 | better TMV activity than the ribavirin | antiTMV activity [3]: comparable to that of commercial Ningnanmycin
21 | Cc1ccc(S(=O)(=O)n2c3ccccc3c3c2cc2ccccc2[n+]3Cc2ccccc2)cc1 [Example 21] | 32.3 ± 1.8 | 40 | – | 41.4 ± 3.9 | 35.9 ± 4 | better TMV activity than the ribavirin | –
22 | C[n+]1c2ccccc2cc2c1c1ccccc1n2S(=O)(=O)c1ccccc1 [Example 22] | 18.2 ± 1.1 | 45 ± 5 | > 50 | 14 ± 1.1 | 15.5 ± 1.1 | – | –
23 | CCCNc1c2ccccc2[n+](C)c2c1[nH]c1ccccc12 [Example 23] | 30.1 ± 1 | – | – | 33 ± 2.9 | 35.2 ± 1.1 | – | pest or weed control at 400 µg/mL [2, 10]: 30%
24 | CNCC(=O)N[C@@H](CO)C(=O)N[C@H]1[C@H](O)[C@@H](O)[C@H](n2ccc(N)nc2=O)O[C@@H]1C(N)=O [Ningnanmycin, reference compound] | 56.9 ± 2.8 | – | – | 58.3 ± 4.1 | 59 ± 2.2 | – | –
25 | Cc1nc(C(F)(F)F)c(C(=O)Nc2c(Br)cc(OC(F)(F)F)cc2Br)s1 [Thifluzamide, reference compound] | – | – | – | – | – | – | pest or weed control at 400 µg/mL [2, 10]: 100%
26 | NC(=O)c1ncn([C@@H]2O[C@H](CO)[C@@H](O)[C@H]2O)n1 [ribavirin, reference compound] | – | – | – | – | – | – | inhibition at 500 µg/mL [1, 7]: 36.1 ± 3.7%; inhibition at 500 µg/mL [3, 8]: 39.5 ± 2%; inhibition at 500 µg/mL [4, 9]: 38 ± 1.3%
